Experimental data: publication PMC4465922 (Nature chemical biology, 2015)

Target: T1, α2C-adrenergic receptor (α2C-AR) (Homo sapiens, UniProt P18825)
T1 sequence (P18825 1-462): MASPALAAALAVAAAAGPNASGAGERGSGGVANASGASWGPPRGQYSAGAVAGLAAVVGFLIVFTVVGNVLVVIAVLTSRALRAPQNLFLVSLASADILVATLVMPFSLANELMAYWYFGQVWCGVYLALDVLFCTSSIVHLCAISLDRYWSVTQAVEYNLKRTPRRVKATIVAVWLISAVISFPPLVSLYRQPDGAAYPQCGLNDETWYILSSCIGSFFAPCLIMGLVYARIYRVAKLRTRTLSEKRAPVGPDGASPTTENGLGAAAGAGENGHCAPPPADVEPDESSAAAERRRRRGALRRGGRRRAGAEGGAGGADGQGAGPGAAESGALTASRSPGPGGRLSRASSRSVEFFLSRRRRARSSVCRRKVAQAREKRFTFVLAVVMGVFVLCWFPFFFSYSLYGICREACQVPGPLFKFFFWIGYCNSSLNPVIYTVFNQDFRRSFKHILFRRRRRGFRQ
Test: [3H]NE competition radioligand binding on HEK293T membranes
Format: cell-based

Question: For `NC[C@H](O)c1ccc(O)c(O)c1` [NE, L-(–)-norepinephrine], which EC50 is on record?
Answer: The EC50 was 1.2 ± 0.4 nM.
